# Measurements taken from patent publication EP1708692B1, “DICHLOROACETATE IN COMBINATION WITH AN INOTROPE FOR CARDIOPROTECTION” (The Governors of the University of Alberta, priority 2004, dated 2005).
# Where “and” joins values, the source holds several entries; their conditions need not be identical. Equal entries are not always repeated. Where two headings read alike, the source gives them in different places.
# What was measured:
# [1] = Plasma DCA levels by HPLC after bolus, adult CABG patients (Example A); format: in vivo; conditions: human, 50 mg/kg, following infusion of 50mg/kg Na+ Dichloroacetate via cardiopulmonary bypass pump, 1 hour following administration, n=8
# Method: (§1) DCA or saline was administered to 18 patients undergoing elective cardiac bypass grafting surgery (CABG) in a double blinded randomized manner DCA (50mg/kg in 100 ml of saline) or placebo was injected into the aortic root, immediately prior to removing aortic cross clamp. Based on the pharmacokinetics of DCA, we anticipated that this would produce a plasma concentration of approximately 1 mM. The study consisted of 8 DCA-treated patients and 10 placebo-treated patients.
# (§2) The intervention involved DCA (50mg/kg) or placebo injected into the aortic root immediately prior to removing aortic cross clamp. The coded solution was made such that a dose of lml/kg provides the appropriate dose of DCA or placebo. Based on the pharmacokinetics of DCA, this was expected to result in a plasma level of DCA in the therapeutic range of (1mM). All blood samples were analyzed by HPLC for DCA concentration.
# Plasma samples were processed for DCA levels using a high performance liquid chromatography (HPLC) technique that separated the DCA from other plasma constituents. In brief, 20 µl of plasma sample was injected into a Beckman Gold HPLC containing a IonoBpher 5A column (250x4.6mm LxID) and a AX Guard Column. […] The flow rate of the HPLC was set at 3.0 ml/min and the DCA eluted from the column was detected by comparing DCA elution times to acetate, monochloroacetate, and trichloroacetate standards. […]
# [2] = test system: patients undergoing elective cardiac bypass grafting surgery (CABG); experiment: Mortality in adult CABG study (Example A); format: in vivo, human; conditions: 50mg/kg bolus, 8 DCA-treated adult patients
# Method: as §1, §2
# [3] = test system: pediatric patients requiring heart surgery to connect complex congenital heart lesions; experiment: Clinical outcome after single DCA bolus: Inotrope Score, ICU time, ventilator time, echocardiography (Example B); format: in vivo; conditions: 50mg/kg bolus, placebo patients 26%
# Method: This study was a randomized, placebo-controlled, double blinded, single surgeon, study of the use of DCA in 40 high-risk pediatric patients requiring heart surgery to connect complex congenital heart lesions.
# In this trial, 40 children were recruited to participate in a single surgeon study, of which 18 received DCA and 22 received placebo. The 1995 power calculations were based on separation of the CPB-1 trial of n = 40 patients.
# The intervention involved DCA (50mg/kg) or placebo injected into the aortic root immediately prior to removing aortic cross clamp. The coded solution was made such that a dose of lml/kg provides the appropriate dose of DCA or placebo. Based on the pharmacokinetics of DCA, this was expected to result in plasma levels of DCA in the therapeutic range of (1mM). All blood samples were analyzed by HPLC for DCA concentration.
# In both the operating room at the end of cardiopulmonary bypass and in the intensive care unit, parenteral drugs were scored on an hourly basis with 1 point allotted for each level for each bolus or infusion given within the previous hour for the first 24 hours post-operatively. Thus, at the end of 24 hours high scores indicated poorer cardiac function.
# [4] = Plasma DCA levels by HPLC, bolus and infusion protocol (Example C); format: in vivo, pediatric patients; conditions: human
# Method: (§3) DCA (50mg/kg) or placebo was injected into the aortic root immediately prior to removing aortic cross clamp. The coded solutions were made such that a dose of 1 ml/kg provided either a DCA therapeutic level of 1mM plasma concentration of DCA, or a placebo solution. Immediately thereafter, an infusion of DCA at 25mg/kg/hr or placebo in the same volume was initiated and run for 24 hours. Based on the pharmacokinetics of DCA, this was expected to maintain plasma levels of DCA in the therapeutic range of (0.2-1mM). However, the plasma concentrations of DCA were below 1mM after the first hour interval, and that the 24 hour plasma concentrations were elevated above 1mM DCA levels at the 24 hour interval, a decision was made to modify the dosing protocol. This change in dosing protocol was approved by the Ethics Committee, but not implemented until patient number 24. All blood samples were analyzed by HPLC for DCA concentration.
# (§4) DCA (100mg/kg) or placebo was injected into the aortic root immediately prior to removing aortic cross clamp. The coded solutions were made such that a dose of 1 ml/kg provided either a DCA therapeutic level of 1mM plasma concentration of DCA, or a placebo solution. Immediately thereafter, an infusion of DCA at 12.5mg/kg/hr or placebo in the same volume was initiated and run for 24 hours. Based on the pharmacokinetics of DCA, this was expected to maintain plasma levels of DCA in the therapeutic range of (0.2-1mM). All blood samples were analyzed by HPLC for DCA concentration.
# Arterial blood samples were obtained from patients at the following times: • a. Immediately after the insertion of arterial line in operating room (i.e., at beginning of surgery). • b. Thirty minutes after the bolus of DCA has been given, whether or not cardiopulmonary bypass has been discontinued. • c. One hour after discontinuing cardiopulmonary bypass. • d. Six hours after discontinuing cardiopulmonary bypass • e. Twelve hours after discontinuing cardiopulmonary bypass. • f. Twenty four hours after discontinuing cardiopulmonary bypass. At the end of 24 hours, the DCA or placebo infusion was discontinued.
# Blood samples were collected from indwelling arterial lines into citrate-containing tubes (0.5 ml blood samples). The samples were spun in the microfuge, the plasma separated, and frozen immediately for later analysis. All plasma samples were stored at -80 degrees centigrade, until further processing. Plasma glucose and lactate were determined using a Sigma glucose kit and a spectrophotometric assay involving lactate dehydrogenase respectively. Plasma fatty acid levels were measured using an ELISA system and WAKO free fatty acid kit.
# [5] = test system: pediatric patients requiring heart surgery to correct complex congenital heart lesions; experiment: Clinical outcome after DCA bolus and 24 hour infusion: Inotrope Score, ICU time, ventilator time (Example C); format: in vivo; design: reduction of Inotrope Scores: concentration or dose not given beside the values; conditions: compared to placebo; for average decrease in Inotrope Score per patient: over the 24 hour period
# Method: This study was a randomized, placebo-controlled, double blinded, single surgeon, study of the use of DCA in 51 high-risk pediatric patients requiring heart surgery to correct complex congenital heart lesions.
# In this trial, 53 infants were recruited to participate in a study, of which 51 patients met inclusion criteria after parental consent. Two dosing groups resulted from the study team changing the dosing protocol after the data from the initial 10 patients were analyzed. The data from patients number 1 to number 10 was analyzed for DCA therapeutic blood levels and therapeutic effect. A recommendation by the research team was made to increase the bolus dose of DCA and to decrease the infusion dose of DCA to maintain a DCA dose range of 1mM for 24 hours. The intent was to administer the new protocol at patient number 20. The 1997 Epicore power calculations were based on separation of the study groups patients into group A of n = 20 patients and Group B of n = 31 patients
# as §3, §4
# In both the operating room at the end of cardiopulmonary bypass and in the intensive care unit, parenteral drugs were scored on an hourly basis with 1 point allotted for each level for each bolus or infusion given within the previous hour within the first 24 hours post-operatively. Thus at the end of 24 hours, high scores indicated poorer cardiac function.
# patients = experiment: Observed side effects of DCA in patients
# [6] = Group A, 50mg/kg bolus and 25mg/kg/hour infusion
# [7] = Group B, 100mg/kg bolus and 12.5mg/kg/hour infusion
smiles,measurement,setting,value
"O=C(O)C(Cl)Cl [DCA, dichloroacetate]",concentration at 1 h,[1],~1000 µM
same,mortalities,[2],no mortalities
same,shortening fraction (echocardiography),[3],35%
same,concentration at 24 h,"[4]; 50 mg/kg, Example C, 24 hour interval (Group A), read-out: optimum mean level of DCA in plasma",2.29 mM
same,concentration at 24 h,"[4]; 50 mg/kg, Group A protocol (50mg/kg bolus, 25mg/kg/hr infusion), 24 hour interval, initial patients, read-out: plasma concentrations of DCA",> 1 mM
same,concentration at 1 h,"[4]; 50 mg/kg, Group A protocol (50mg/kg bolus, 25mg/kg/hr infusion), after the first hour interval, initial patients, read-out: plasma concentrations of DCA",< 1 mM
same,concentration at 12 h,"[4]; 50 mg/kg, Group A, 50mg/kg bolus and 25mg/kg/hr infusion, n=9, read-out: Average DCA Plasma Levels, mM at 12 hr",1.77 mM
same,concentration at 6 h,"[4]; 50 mg/kg, Group A, 50mg/kg bolus and 25mg/kg/hr infusion, n=10, read-out: Average DCA Plasma Levels, mM at 6 hr",1.13 mM
same,concentration at 1 h,"[4]; 50 mg/kg, Group A, 50mg/kg bolus and 25mg/kg/hr infusion, n=11, read-out: Average DCA Plasma Levels, mM at 1 hr",0.46 mM
same,concentration at 24 h,"[4]; 50 mg/kg, Group A, 50mg/kg bolus and 25mg/kg/hr infusion, n=11, read-out: Average DCA Plasma Levels, mM at 24 hr",2.72 mM
same,concentration at 6 h,"[4]; 50 mg/kg, Group A, 50mg/kg bolus and 25mg/kg/hr infusion, patients with greatest degree of clinical benefits, m=5, read-out: Average Optimum Mean of DCA Plasma Levels, mM at 6 hr",0.916 mM
same,concentration at 12 h,"[4]; 50 mg/kg, Group A, 50mg/kg bolus and 25mg/kg/hr infusion, patients with greatest degree of clinical benefits, m=5, read-out: Average Optimum Mean of DCA Plasma Levels, mM at 12 hr",1.52 mM
same,concentration at 24 h,"[4]; 50 mg/kg, Group A, 50mg/kg bolus and 25mg/kg/hr infusion, patients with greatest degree of clinical benefits, m=6, read-out: Average Optimum Mean of DCA Plasma Levels, mM at 24 hr",2.29 mM
same,concentration at 6 h,"[4]; 100 mg/kg, Example C, 1 to 6 hour period (Group B), read-out: optimum mean level of DCA in plasma",1 mM
same,concentration at 6 h,"[4]; 100 mg/kg, Group B, 100mg/kg bolus and 12.5 mg/kg/hr infusion, n not given, read-out: Average Optimum Mean of DCA Plasma Levels, mM at 6 hr",1 mM
same,concentration at 12 h,"[4]; 100 mg/kg, Group B, 100mg/kg bolus and 12.5 mg/kg/hr infusion, n not given, read-out: Average Optimum Mean of DCA Plasma Levels, mM at 12 hr",1 mM
same,concentration at 24 h,"[4]; 100 mg/kg, Group B, 100mg/kg bolus and 12.5 mg/kg/hr infusion, n not given, read-out: Average Optimum Mean of DCA Plasma Levels, mM at 24 hr",1 mM
same,concentration at 24 h,"[4]; 100 mg/kg, Group B, 100mg/kg bolus and 12.5 mg/kg/hr infusion, n=10, read-out: Average DCA Plasma Levels, mM at 24 hr",2.23 mM
same,concentration at 1 h,"[4]; 100 mg/kg, Group B, 100mg/kg bolus and 12.5 mg/kg/hr infusion, n=11, read-out: Average DCA Plasma Levels, mM at 1 hr",1.13 mM
same,concentration at 6 h,"[4]; 100 mg/kg, Group B, 100mg/kg bolus and 12.5 mg/kg/hr infusion, n=11, read-out: Average DCA Plasma Levels, mM at 6 hr",0.894 mM
same,concentration at 12 h,"[4]; 100 mg/kg, Group B, 100mg/kg bolus and 12.5 mg/kg/hr infusion, n=11, read-out: Average DCA Plasma Levels, mM at 12 hr",1.43 mM
same,concentration at 6 h,"[4]; Example C, 1 to 6 hour interval, read-out: DCA plasma level range",0.229 to 2.22 mM
same,concentration at 12 h,"[4]; Example C, 12 hour interval, read-out: DCA plasma level range",0.38 to 3.07 mM
same,concentration at 12 h,"[4]; Example C, 12 hour interval, read-out: optimum mean level of DCA in plasma",1.52 mM
same,concentration at 24 h,"[4]; Example C, 24 hour interval, read-out: DCA plasma level range",1.74 to 3.9 mM
same,concentration at 1 h,"[4]; Group A, 50mg/kg bolus and 25mg/kg/hr infusion, patients with greatest degree of clinical benefits, n not given, read-out: Average Optimum Mean of DCA Plasma Levels, mM at 1 hr",1 mM
same,concentration at 1 h,"[4]; Group B, 100mg/kg bolus and 12.5 mg/kg/hr infusion, patients with greatest degree of clinical benefits, n=7, read-out: Average Optimum Mean of DCA Plasma Levels, mM at 1 hr",1.01 mM
same,reduction of time in ICU,"[5]; Group A, 50mg/kg bolus and 25mg/kg/hour infusion, 23 patients",60 h
same,decrease of time in ICU,[5]; [6],41%
same,decrease of ventilator time,[5]; [6],47%
same,reduction of ventilator time,[5]; [6],46 h
same,reduction of Inotrope Scores,"[5]; Group A, by 1 hour",50%
same,reduction of Inotrope Scores,"[5]; Group A, by 12 hours",45%
same,reduction of Inotrope Scores,"[5]; Group A, by 24 hours",38%
same,average decrease in Inotrope Score per patient,[5]; Group A,44%
same,reduction of time in ICU,"[5]; Group B, 100mg/kg bolus and 12.5mg/kg/hour infusion, 24 patients",50 h
same,decrease of time in ICU,[5]; [7],40%
same,decrease of ventilator time,[5]; [7],23%
same,reduction of ventilator time,[5]; [7],18 h and 19 h
same,reduction of Inotrope Scores,"[5]; Group B, by 1 hour",57%
same,reduction of Inotrope Scores,"[5]; Group B, by 12 hours",49%
same,reduction of Inotrope Scores,"[5]; Group B, by 24 hours",45%
same,average decrease in Inotrope Score per patient,[5]; Group B,51%
same,side-effects,patients; general observation in patients,"not have significant side-effects, although some patients experience mild drowsiness"
same,adverse effects of DCA,patients; previous (pilot) studies,no adverse effects
